Data taken from ChEMBL document CHEMBL1208728, “Design, synthesis, and structure-activity relationships of pyrazole derivatives as potential FabH inhibitors” (Bioorg Med Chem Lett, 2010).
Values after ≈ are worked out from the molar mass of the structure shown.

Experiments:
[1] = system: Bacillus subtilis; experiment: Antimicrobial activity against Bacillus subtilis ATCC 6633 by MTT assay; assay type: functional
[2] = system: Staphylococcus aureus; experiment: Antimicrobial activity against Staphylococcus aureus ATCC 6538 by MTT assay; assay type: functional
[3] = system: Enterococcus faecalis; experiment: Antimicrobial activity against Streptococcus faecalis ATCC 9790 by MTT assay; assay type: functional
[4] = system: Pseudomonas aeruginosa; experiment: Antimicrobial activity against Pseudomonas aeruginosa ATCC 13525 by MTT assay; assay type: functional
[5] = system: Escherichia coli; experiment: Antimicrobial activity against Escherichia coli ATCC 35218 by MTT assay; assay type: functional
[6] = system: Enterobacter cloacae; experiment: Antimicrobial activity against Enterobacter cloacae ATCC 13047 by MTT assay; assay type: functional
[7] = molecular target: T1, 3-oxoacyl-[acyl-carrier-protein] synthase 3 (Escherichia coli, UniProt C3TDZ2); experiment: Inhibition of Escherichia coli FabH
T1 sequence (C3TDZ2 whole entry): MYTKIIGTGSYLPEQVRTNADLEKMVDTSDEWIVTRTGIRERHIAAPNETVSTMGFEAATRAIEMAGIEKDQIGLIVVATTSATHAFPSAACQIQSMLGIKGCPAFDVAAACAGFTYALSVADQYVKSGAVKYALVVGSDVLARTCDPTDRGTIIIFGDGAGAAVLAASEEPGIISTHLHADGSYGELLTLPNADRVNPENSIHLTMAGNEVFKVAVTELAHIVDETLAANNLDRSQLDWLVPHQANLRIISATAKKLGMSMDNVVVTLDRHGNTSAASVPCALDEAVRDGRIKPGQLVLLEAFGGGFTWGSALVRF

[8] = Toxicity against RBC assessed as hemolysis; assay type: cell-based; conditions: erythrocyte

COc1ccc(C2=NN(C(C)=O)C(c3ccc(C)cc3)C2)cc1 (stereo not given)
MIC [1]: 25 µg/mL (≈ 81.1 µM) | MIC [2]: 6.25 µg/mL (≈ 20.3 µM) | MIC [3]: 25 µg/mL (≈ 81.1 µM) | MIC [4]: 12.5 µg/mL (≈ 40.5 µM) | MIC [5]: 6.25 µg/mL (≈ 20.3 µM) | MIC [6]: 3.12 µg/mL (≈ 10.1 µM) | IC50 [7]: 17.3 µM | LC30 [8]: > 10000 µg/mL

COc1ccc(C2=NN(C(C)=O)C(c3ccc(F)cc3)C2)cc1 (stereo not given)
MIC [1]: 6.25 µg/mL (≈ 20 µM) | MIC [2]: 6.25 µg/mL (≈ 20 µM) | MIC [3]: 1.56 µg/mL (≈ 5 µM) | MIC [4]: 12.5 µg/mL (≈ 40 µM) | MIC [5]: 0.39 µg/mL (≈ 1.25 µM) | MIC [6]: 12.5 µg/mL (≈ 40 µM) | IC50 [7]: 4.2 µM | LC30 [8]: > 10000 µg/mL

COc1ccc(C2=NN(C(C)=O)C(c3ccc(Br)cc3)C2)cc1 (stereo not given)
MIC [1]: 12.5 µg/mL (≈ 33.5 µM) | MIC [2]: 12.5 µg/mL (≈ 33.5 µM) | MIC [3]: 3.12 µg/mL (≈ 8.37 µM) | MIC [4]: 12.5 µg/mL (≈ 33.5 µM) | MIC [5]: 1.56 µg/mL (≈ 4.18 µM) | MIC [6]: > 50 µg/mL | IC50 [7]: 10.4 µM | LC30 [8]: > 10000 µg/mL

COc1ccc(C2=NN(C(C)=O)C(c3ccccc3)C2)cc1 (stereo not given)
MIC [1]: 6.25 µg/mL (≈ 21.2 µM) | MIC [2]: > 50 µg/mL | MIC [3]: 50 µg/mL (≈ 170 µM) | MIC [4]: 12.5 µg/mL (≈ 42.5 µM) | MIC [5]: 25 µg/mL (≈ 84.9 µM) | MIC [6]: > 50 µg/mL | IC50 [7]: 46.7 µM | LC30 [8]: > 10000 µg/mL

COc1ccc(C2=NN(C(C)=O)C(c3ccc(OC)cc3)C2)cc1 (stereo not given)
MIC [1]: 6.25 µg/mL (≈ 19.3 µM) | MIC [2]: 6.25 µg/mL (≈ 19.3 µM) | MIC [3]: 12.5 µg/mL (≈ 38.5 µM) | MIC [4]: > 50 µg/mL | MIC [5]: 3.12 µg/mL (≈ 9.63 µM) | MIC [6]: 12.5 µg/mL (≈ 38.5 µM) | IC50 [7]: 19.6 µM | LC30 [8]: > 10000 µg/mL

COc1ccc(C2=NN(C(C)=O)C(c3ccccc3Cl)C2)cc1 (stereo not given)
MIC [1]: 25 µg/mL (≈ 76 µM) | MIC [2]: > 50 µg/mL | MIC [3]: 12.5 µg/mL (≈ 38 µM) | MIC [4]: > 50 µg/mL | MIC [5]: 6.25 µg/mL (≈ 19 µM) | MIC [6]: 6.25 µg/mL (≈ 19 µM) | IC50 [7]: 31.4 µM | LC30 [8]: > 10000 µg/mL

COc1ccc(C2=NN(C(C)=O)C(c3cc(OC)cc(OC)c3)C2)cc1 (stereo not given)
MIC [1]: 6.25 µg/mL (≈ 17.6 µM) | MIC [2]: 12.5 µg/mL (≈ 35.3 µM) | MIC [3]: 50 µg/mL (≈ 141 µM) | MIC [4]: 12.5 µg/mL (≈ 35.3 µM) | MIC [5]: 12.5 µg/mL (≈ 35.3 µM) | MIC [6]: 6.25 µg/mL (≈ 17.6 µM)

COc1cc(OC)cc(C2CC(c3ccccc3)=NN2C(C)=O)c1 (stereo not given)
MIC [1]: 12.5 µg/mL (≈ 38.5 µM) | MIC [2]: 25 µg/mL (≈ 77.1 µM) | MIC [3]: 25 µg/mL (≈ 77.1 µM) | MIC [4]: 25 µg/mL (≈ 77.1 µM) | MIC [5]: 25 µg/mL (≈ 77.1 µM) | MIC [6]: > 50 µg/mL

CC(=O)N1N=C(c2ccccc2)CC1c1ccc(Br)cc1 (stereo not given)
MIC [1]: 25 µg/mL (≈ 72.8 µM) | MIC [2]: > 50 µg/mL | MIC [3]: 12.5 µg/mL (≈ 36.4 µM) | MIC [4]: 25 µg/mL (≈ 72.8 µM) | MIC [5]: 12.5 µg/mL (≈ 36.4 µM) | MIC [6]: 12.5 µg/mL (≈ 36.4 µM)

CC(=O)N1N=C(c2ccccc2F)CC1c1ccccc1Cl (stereo not given)
MIC [1]: 6.25 µg/mL (≈ 19.7 µM) | MIC [2]: 12.5 µg/mL (≈ 39.5 µM) | MIC [3]: 25 µg/mL (≈ 78.9 µM) | MIC [4]: 12.5 µg/mL (≈ 39.5 µM) | MIC [5]: 12.5 µg/mL (≈ 39.5 µM) | MIC [6]: 12.5 µg/mL (≈ 39.5 µM)

COc1ccc(C2=NN(C(C)=O)C(c3ccc(Cl)cc3)C2)cc1 (stereo not given)
MIC [1]: 6.25 µg/mL (≈ 19 µM) | MIC [2]: 25 µg/mL (≈ 76 µM) | MIC [3]: 6.25 µg/mL (≈ 19 µM) | MIC [4]: 25 µg/mL (≈ 76 µM) | MIC [5]: 0.78 µg/mL (≈ 2.37 µM) | MIC [6]: 25 µg/mL (≈ 76 µM) | IC50 [7]: 7.6 µM | LC30 [8]: > 10000 µg/mL
